“Also recorded” adds a separate entry of the source.
How the values were obtained:
ISC-enriched organoids = assay: Lysozyme secretion assay, 3-D organoids in ENR+CD, normalized to ATP; type: cell-based, murine
Experimental: Lysozyme assay (3D culture). ISC-enriched organoids cultured in 3D Matrigel with ENRCV media were passaged to 48-well plate in 3D Matrigel with ENRCV. At day zero, media were replaced to ENR or ENRCD with or without indicated compounds, and media were replaced every other day. At day six, cells were washed twice with basal media and treated with carbamylcholine chloride (Sigma, C4382) for 3 hours. Media were collected and lysozyme activity was measured by EnzChek Lysozyme Assay Kit (ThermoFisher, E22013).
(§1) Lysozyme secretion assay. ISC-enriched organoids in 3D Matrigel culture were passaged to a 48- or 96-well plate and cultured with ENR or ENR+CD media containing DMSO or each drug for 6 days. DMSO- or drug-containing media were changed every other day. On day 6, cells were washed with basal media twice and treated with basal media with or without 10 μM carbamoylcholine chloride for 3 h in a CO2 incubator at 37° C. A part of the conditioned media was collected and used for lysozyme assay (Thermo, E-22013) following the manufacturer's instruction. The fluorescence was measured using excitation/emission of 485/530 nm. CellTiter-Glo 3D Reagent (Promega, G9681) was added afterward, and the cell culture plate was incubated on an orbital shaker at RT for 30 min to induce cell lysis and to stabilize the luminescent signal. The solution was replaced to a 96-well white microplate, and luminescent signals were measured by a microplate reader (infinite M200, Tecan). The standard curve was prepared by diluting recombinant ATP (Promega, P1132). For both assays, a polynomial cubic curve was fitted to a set of standard data, and each sample value was calculated on the Microsoft Excel.
as §1, with “in 3-D” for “in 3D”, “μM carbachol” for “μM carbamoylcholine chloride”, “3 hours” for “3 h”, “C. Conditioned” for “C. A part of the conditioned”, “nm. CTG” for “nm. CellTiter-Glo”, “Reagent” for “Reagent (Promega, G9681)”

[1] = tested on: ENR+CD differentiating organoids; assay: Longitudinal single-cell RNA-seq (Seq-Well) of organoid differentiation, ENR+CD with or without 160 nM KPT-330; type: cell-based, murine
From the text: For time points beyond 2 days, media was refreshed every other day. Following the Seq-Well protocol Applicants followed a standard library preparation, sequencing, and alignment process (see Methods). […] Single-cell RNA-sequencing. A single-cell suspension was obtained from organoids cultured under conditions for the differentiation time course as described above. Applicants utilized the Seq-Well platform for massively parallel scRNA-seq to capture transcriptomes of single cells on barcoded mRNA capture beads. […] In brief, 20,000 cells from one organoid condition were loaded onto one array containing 100,000 barcoded mRNA capture beads. The loaded arrays containing cells and beads were then sealed using a polycarbonate membrane with a pore size of […], which allows for exchange of buffers but retains biological molecules confined within each microwell. Subsequent exchange of buffers allows for cell lysis, transcript hybridization, and bead recovery before performing reverse transcription en masse. Following reverse transcription and exonuclease treatment to remove excess primers, PCR amplification was carried out using KAPA HiFi PCR Mastermix with 2,000 beads per 50 μL reaction volume. Libraries were then pooled and purified using Agencourt AMPure XP beads (Beckman Coulter, A63881) by a 0.6×SPRI followed by a 0.8×SPRI and quantified using Qubit […] (Thermo Fisher). Libraries were constructed using the Nextera Tagmentation method on a total of 800 pg of pooled cDNA library per sample. […] Arrays were sequenced with an Illumina NovaSeq System. The read structure was paired end with Read 1 starting from a custom read 1 primer containing 20 bases with a 12 bp cell barcode and 8 bp unique molecular identifier (UMI) and Read 2 being 50 bases containing transcript information. Single-cell RNA-sequencing computational pipelines and analysis. […] Briefly, for each sequencing run, raw sequencing data was converted to demultiplexed FASTQ files using bcl2fastq2 based on Nextera N700 indices corresponding to individual samples/arrays. […] Individual reads were tagged according to the 12-bp barcode sequencing and the 8-bp UMI contained in Read 1 of each fragment. Following alignment, reads were binned onto 12-bp cell barcodes and collapsed by their 8-bp UMI. Digital gene expression matrices (e.g. cell by gene tables) for each sample were obtained from quality filtered and mapped reads and UMI-collapsed data, are deposited in GSE100274, and were utilized as input into Seurat v3 for further analysis. […] Applicants collected 17 samples at the following timepoints: 6 hours (0.25 days), and 1, 2, 3, 4, or 6 days. […] For time points beyond 2 days, media was refreshed every other day. […] Murine and human single-cell RNA-sequencing and alignment. […] Excess Matrigel was removed per previously described washing protocol, and organoids were resuspended in TrypLE at 37 C for 15 min, with vigorous homogenization through a p200 pipette tip every 5 min. After 15 min, the suspension was passed through a 30 uM cell strainer twice, and counted under brightfield microscopy with trypan blue staining for viable single cells. For human organoid scRNA-seq, antibody-based cell hashing was performed, with all samples pooled following labeling and three washes in FACS buffer to remove excess antibody. Each sample was manually counted to equally weight in cell pools, and then the pool was split and processed as four identical samples.

[2] = tested on: human small intestinal organoids; assay: Lysozyme secretion assay, stem cell-enriched human small intestinal organoids; type: cell-based; conditions: increasing KPT-330 concentrations, 6 days, three duodenal donors
From the text: To extend the observations from the murine organoid system, Applicants sought to examine how XPO1 inhibition via KPT-330 may effect human small intestinal stem cells by utilizing a stem-cell enriched human small intestinal organoid model^46 (see Methods).
Human crypt isolation and organoid culture. Samples from adult human duodenum were collected for organoid culture in accordance with MGH IRB guidance. Human donor tissue was non-inflamed excess tissue collected during bulk surgical resection via MGH pathology. Crypts were isolated from bulk resections as follows. Bulk resections were cut into approximately 0.25 cm sections from epithelial surface, and washed in PBSO repeatedly by gently pipetting the fragments using a 10-ml pipette until the supernatant was clear. Fragments were rocked on ice with crypt isolation buffer (10 mM EDTA, 10 mM HEPES, 2% FCS in PBSO) for 30 min. After isolation buffer was removed, fragments were washed with cold PBSO by vigorous shaking to release the crypts, this process was repeated with reserved crypt-laden supernatant fractions 4-6 times or until supernatant was free of intact crypts (visual inspection). […]
Lysozyme secretion assay. […] The solution was replaced to a 96-well white microplate, and luminescent signals were measured by a microplate reader (infinite M200, Tecan).

[3] = tested on: human small intestinal organoids; assay: Single-cell RNA-seq (Seq-Well S^3) of human small intestinal organoids with or without KPT-330; type: cell-based
From the text: To more completely explore the changes induced by KPT-330 in this human organoid model, and any donor associated effects, Applicants again utilized scRNA-seq via Seq-Well S^3. Applicants performed a comparison between untreated and KPT-330-treated organoids from each donor over a 6-day differentiation, with each sample consisting of single cells from >1,000 organoids. The resulting dataset consists of 2,484 cells. UMI, percent mitochondrial, and detected gene distributions are similar across samples, within acceptable quality bounds (genes >500, UMI<30,000, percent mitochondrial <35) (FIG. 60A).
For both, organoids at each sampling were harvested from 4-6 pooled Matrigel domes, totaling >1,000 organoids per sample. Excess Matrigel was removed per previously described washing protocol, and organoids were resuspended in TrypLE at 37 C for 15 min, with vigorous homogenization through a p200 pipette tip every 5 min. After 15 min, the suspension was passed through a 30 uM cell strainer twice, and counted under brightfield microscopy with trypan blue staining for viable single cells. For human organoid scRNA-seq, antibody-based cell hashing was performed, with all samples pooled following labeling and three washes in FACS buffer to remove excess antibody. Each sample was manually counted to equally weight in cell pools, and then the pool was split and processed as four identical samples.
Antibody hashed arrays were demultiplex with doublets and negative-staining cells removed following default settings of the Seurat function HTODemux.
Applicants performed integrated analysis on a combined dataset of 2,484 cells, with quality metrics for gene number, captured UMIs, and percent mitochondrial genes reported in Supp. […] Dimensional reduction and clustering was performed following normalization in Seurat V3 via SCTransform^71. Applicants performed variable gene identification and dimensionality reduction utilizing the first 18 principal components based on the elbow method to identify 7 clusters using Louvain clustering (Resolution=0.5). […]

Which “LYZ secretion, dose dependency” value (ISC-enriched organoids; KPT-330 below 160 nM for 6 days, basal and Cch-stimulated) does the source give for O=C(/C=C\n1cnc(-c2cc(C(F)(F)F)cc(C(F)(F)F)c2)n1)NNc1cnccn1 [KPT-330] here?
The value was “enhanced Paneth cell activity in a dose-dependent manner; also recorded: LYZ secretion increasing in a dose-dependent manner”.

What about the “enrichment in mature Paneth cells at day 6 (LYZ secretion assay)” value (ISC-enriched organoids; KPT-330 treatment day 4-6) of the same compound?
The value was “minorly enriched; also recorded: slightly enriched”.

And the “most effective dose among tested concentrations” value (ISC-enriched organoids; LYZ secretion, ENR+CD 6 days)?
The value was 160 nM.

What about the “organoid cell type composition over differentiation time course” value ([1]; 160 nM KPT-330 vs control, day 0.25-6) of the same compound?
The value was “enhances stem conversion to mature cells; also recorded: relative depletion of stem I (and stem II & III) and enteroendocrine cells over time along with the corresponding enrichment of enterocytes and Paneth cells”.

And the “inferred signaling pathway activity (PROGENy), effect of KPT-330” value ([1]; Cohen's d per pathway and cell type)?
The value was “pan-epithelial increase in stress-associated Trail signaling”.

And the “inferred upstream TF activity clusters (DoRothEA), effect of KPT-330” value ([1]; Fisher's exact test per cell type)?
Its value is “depletion of cell cycle cluster 0 and enrichment in stress response cluster 6”.

What about the “active and quiescent ISC signature” value ([1]; early stem cell populations, KPT-330 vs control) of the same compound?
Its value is “induces a quiescent ISC signature and reduces an active ISC signature; also recorded: transition into quiescence”.

What about the “differentially expressed genes, KPT-330 treated vs untreated” value ([1]; stem II/III populations, day 0.25-2) of the same compound?
Its value is “most significantly enriched (Xpo1) and depleted (Kpnb1”.

What about the “gene set enrichment analysis (MSigDB hallmark v7)” value ([1]; stem II/III populations, day 0.25-2, FDR<0.05) of the same compound?
Its value is “suppresses programs downstream of mitogen-driven signaling”.

And the “normalized LYZ secretion” value [2]?
Its value is “normalized LYZ secretion significantly increases with dose”.

What about the “LYZ expression (scRNA-seq)” value ([3]; 160 nM KPT-330, 6 days, all donors) of the same compound?
Its value is “increased LYZ expression”.

And the “cell type composition (scRNA-seq)” value ([3]; 160 nM KPT-330, 6 days, pan-donor)?
The value was “decreases in cycling stem and progenitor populations, increases in quiescent progenitors and enterocytes”.

And the “XPO1 expression (scRNA-seq)” value ([3]; following KPT-330 treatment)?
The value was “compensatory increase in XPO1 expression”.

— patent publication US20230398130A1, “METHODS AND COMPOSITIONS FOR DIFFERENTIATING STEM CELLS” (Massachusetts Institute of Technology, priority 2020, published 2023)
